Assay results taken from ChEMBL document CHEMBL1134708, “Synthesis of analogues of the O-beta-D-ribofuranosyl nucleoside moiety of liposidomycins. Part 1: contribution of the amino group and the uracil moiety upon the inhibition of MraY” (Bioorg Med Chem Lett, 2001).

These compounds were tested against T1, Phospho-N-acetylmuramoyl-pentapeptide-transferase (Escherichia coli K-12, UniProt P0A6W3) (assay: Inhibition of Translocase (mraY) at >1000 uM (No activity)).
T1 sequence (P0A6W3 whole entry): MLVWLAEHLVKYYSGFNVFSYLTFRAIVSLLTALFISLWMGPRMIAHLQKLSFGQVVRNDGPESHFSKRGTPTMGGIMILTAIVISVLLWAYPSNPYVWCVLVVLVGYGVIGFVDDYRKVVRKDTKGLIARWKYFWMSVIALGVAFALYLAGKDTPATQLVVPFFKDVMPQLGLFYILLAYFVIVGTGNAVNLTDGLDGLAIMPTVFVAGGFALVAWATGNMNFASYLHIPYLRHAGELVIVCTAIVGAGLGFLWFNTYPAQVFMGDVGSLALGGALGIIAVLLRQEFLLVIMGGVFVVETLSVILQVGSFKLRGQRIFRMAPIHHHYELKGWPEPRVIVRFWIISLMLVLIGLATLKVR

Row | IC50 | Compound
1 | Not Active | Cn1c(=O)ccn([C@@H]2O[C@H](CO[C@@H]3O[C@H](CN)C(O)[C@H]3O)C(O)[C@H]2O)c1=O (single isomer, unassigned)
2 | Not Active | NC[C@H]1O[C@@H](OC[C@H]2O[C@@H](N3CCC(=O)NC3=O)[C@H](O)C2O)[C@H](O)C1O (single isomer, unassigned)

The compounds below were run against T1, Phospho-N-acetylmuramoyl-pentapeptide-transferase (assay: Inhibition of Escherichia coli Translocase (mraY)).

Row | Compound | IC50 [µM]
3 | N=C(N)NC[C@H]1O[C@@H](OC[C@H]2O[C@@H](n3ccc(=O)[nH]c3=O)[C@H](O)[C@@H]2O)[C@H](O)[C@@H]1O | 25
4 | NC[C@H]1O[C@@H](OC(CO)[C@H]2O[C@@H](n3ccc(=O)[nH]c3=O)[C@H](O)[C@@H]2O)[C@H](O)[C@@H]1O (stereo partly specified) | 5
5 | CN(C)C[C@H]1O[C@@H](OC[C@H]2O[C@@H](n3ccc(=O)[nH]c3=O)[C@H](O)C2O)[C@H](O)C1O (single isomer, unassigned) | > 1000
6 | CC(C)NC[C@H]1O[C@@H](OC[C@H]2O[C@@H](n3ccc(=O)[nH]c3=O)[C@H](O)C2O)[C@H](O)C1O (single isomer, unassigned) | 180
7 | CCCCCCNC[C@H]1O[C@@H](OC[C@H]2O[C@@H](n3ccc(=O)[nH]c3=O)[C@H](O)C2O)[C@H](O)C1O (single isomer, unassigned) | 130
8 | C[N+](C)(C)C[C@H]1O[C@@H](OC[C@H]2O[C@@H](n3ccc(=O)[nH]c3=O)[C@H](O)C2O)[C@H](O)C1O (single isomer, unassigned) | > 1000

Further lines, results first:

Row | IC50 [µM] | Compound
9 | > 1000 | CC(=O)NC[C@H]1O[C@@H](OC[C@H]2O[C@@H](n3ccc(=O)[nH]c3=O)[C@H](O)[C@@H]2O)[C@H](O)[C@@H]1O
10 | 150 | CCNC[C@H]1O[C@@H](OC[C@H]2O[C@@H](n3ccc(=O)[nH]c3=O)[C@H](O)C2O)[C@H](O)C1O (single isomer, unassigned)
11 | 30 | N=CNC[C@H]1O[C@@H](OC[C@H]2O[C@@H](n3ccc(=O)[nH]c3=O)[C@H](O)C2O)[C@H](O)C1O (single isomer, unassigned)
12 | > 1000 | O=CNC[C@H]1O[C@@H](OC[C@H]2O[C@@H](n3ccc(=O)[nH]c3=O)[C@H](O)C2O)[C@H](O)C1O (single isomer, unassigned)
13 | 140 | CCCNC[C@H]1O[C@@H](OC[C@H]2O[C@@H](n3ccc(=O)[nH]c3=O)[C@H](O)C2O)[C@H](O)C1O (single isomer, unassigned)
14 | 50 | NC[C@H]1O[C@@H](OC[C@H]2O[C@@H](n3ccc(=O)[nH]c3=O)[C@H](O)C2O)[C@H](O)C1O (single isomer, unassigned)
15 | 45 | CNC[C@H]1O[C@@H](OC[C@H]2O[C@@H](n3ccc(=O)[nH]c3=O)[C@H](O)C2O)[C@H](O)C1O (single isomer, unassigned)
16 | > 1000 | O=c1ccn([C@@H]2O[C@H](CO[C@@H]3O[C@H](CO)C(O)[C@H]3O)C(O)[C@H]2O)c(=O)[nH]1 (single isomer, unassigned)
